Data reported in the supplement of paper PMC10307832.

Legend:
Assay in all cases: relative viability (nuclei count vs DMSO), 5 days (fraction); higher = more cells survive
COR-L23 = test system: COR-L23
Outline: (§1)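 Lung cancer cell lines were pin-tool dosed in 1536-well plates on the day after seeding, with either a lone drug or a fixed anchor-drug dose plus five library-drug doses (not always all listed) in √10 steps. Nuclei were counted on 4× images after 5 days. Relative viability is the ratio of treated-well to vehicle-well nuclei counts, with each value a median of duplicate plates.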

EMC-BAC-2 = test system: EMC-BAC-2
Outline: as §1

EPLC-272H = test system: EPLC-272H
Outline: as §1

H3255 = test system: H3255
Outline: as §1

HCC-44 = test system: HCC-44
Outline: as §1

HCC-827 = test system: HCC-827
Outline: as §1

LCLC-103H = test system: LCLC-103H
Outline: as §1

LU99A = test system: LU99A
Outline: as §1

NCI-H1395 = test system: NCI-H1395
Outline: as §1

NCI-H1563 = test system: NCI-H1563
Outline: as §1

NCI-H1651 = test system: NCI-H1651
Outline: as §1

NCI-H1793 = test system: NCI-H1793
Outline: as §1

NCI-H1944 = test system: NCI-H1944
Outline: as §1

NCI-H2023 = test system: NCI-H2023
Outline: as §1

NCI-H2085 = test system: NCI-H2085
Outline: as §1

NCI-H2087 = test system: NCI-H2087
Outline: as §1

NCI-H2405 = test system: NCI-H2405
Outline: as §1

NCI-H520 = test system: NCI-H520
Outline: as §1

NCI-H650 = test system: NCI-H650
Outline: as §1

NCI-H838 = test system: NCI-H838
Outline: as §1

SK-MES-1 = test system: SK-MES-1
Outline: as §1

## CCN(CC)CCCCNc1ncc2cc(-c3cc(OC)cc(OC)c3)c(NC(=O)NC(C)(C)C)nc2n1 + C[C@]1(O)C[C@@H](c2nc(-c3ccc4ccc(-c5ccccc5)nc4c3)c3c(N)nccn32)C1 [Linsitinib] (partner 1 µM)
COR-L23; first compound 0.01 µM
  relative viability: 1
COR-L23; first compound 0.03162 µM
  relative viability: 1.2
COR-L23; first compound 0.1 µM
  relative viability: 1.15
COR-L23; first compound 0.3162 µM
  relative viability: 1.09
COR-L23; first compound 1 µM
  relative viability: 0.948
EMC-BAC-2; first compound 0.01 µM
  relative viability: 0.873
EMC-BAC-2; first compound 0.03162 µM
  relative viability: 0.836
EMC-BAC-2; first compound 0.1 µM
  relative viability: 0.821
EMC-BAC-2; first compound 0.3162 µM
  relative viability: 0.838
EMC-BAC-2; first compound 1 µM
  relative viability: 0.771
EPLC-272H; first compound 0.01 µM
  relative viability: 1.26
EPLC-272H; first compound 0.1 µM
  relative viability: 1.1
EPLC-272H; first compound 0.3162 µM
  relative viability: 1.32
EPLC-272H; first compound 1 µM
  relative viability: 1.17
H3255; first compound 0.01 µM
  relative viability: 1.02
H3255; first compound 0.03162 µM
  relative viability: 1.04
H3255; first compound 0.1 µM
  relative viability: 0.986
H3255; first compound 0.3162 µM
  relative viability: 1.06
H3255; first compound 1 µM
  relative viability: 0.892
HCC-44; first compound 0.01 µM
  relative viability: 0.752
HCC-44; first compound 0.03162 µM
  relative viability: 0.709
HCC-44; first compound 0.1 µM
  relative viability: 0.749
HCC-44; first compound 0.3162 µM
  relative viability: 0.684
HCC-44; first compound 1 µM
  relative viability: 0.614
HCC-827; first compound 0.01 µM
  relative viability: 0.933
HCC-827; first compound 0.03162 µM
  relative viability: 0.987
HCC-827; first compound 0.1 µM
  relative viability: 1.01
HCC-827; first compound 0.3162 µM
  relative viability: 0.982
HCC-827; first compound 1 µM
  relative viability: 0.961
LCLC-103H; first compound 0.01 µM
  relative viability: 1.17
LCLC-103H; first compound 0.03162 µM
  relative viability: 1.11
LCLC-103H; first compound 0.1 µM
  relative viability: 1.2
LCLC-103H; first compound 0.3162 µM
  relative viability: 1.09
LCLC-103H; first compound 1 µM
  relative viability: 1.15
LU99A; first compound 0.01 µM
  relative viability: 0.557
LU99A; first compound 0.03162 µM
  relative viability: 0.565
LU99A; first compound 0.1 µM
  relative viability: 0.565
LU99A; first compound 0.3162 µM
  relative viability: 0.583
LU99A; first compound 1 µM
  relative viability: 0.517
NCI-H1395; first compound 0.03162 µM
  relative viability: 1.02
NCI-H1395; first compound 0.1 µM
  relative viability: 0.935
NCI-H1395; first compound 0.3162 µM
  relative viability: 1.04
NCI-H1395; first compound 1 µM
  relative viability: 0.671
NCI-H1563; first compound 0.01 µM
  relative viability: 1.29
NCI-H1563; first compound 0.03162 µM
  relative viability: 1.34
NCI-H1563; first compound 0.1 µM
  relative viability: 1.13
NCI-H1563; first compound 0.3162 µM
  relative viability: 1.09
NCI-H1563; first compound 1 µM
  relative viability: 0.889
NCI-H1651; first compound 0.01 µM
  relative viability: 1.06
NCI-H1651; first compound 0.03162 µM
  relative viability: 0.931
NCI-H1651; first compound 0.1 µM
  relative viability: 1.28
NCI-H1651; first compound 0.3162 µM
  relative viability: 1.16
NCI-H1651; first compound 1 µM
  relative viability: 0.786
NCI-H1793; first compound 0.01 µM
  relative viability: 1.14
NCI-H1793; first compound 0.1 µM
  relative viability: 1.02
NCI-H1793; first compound 0.3162 µM
  relative viability: 1.03
NCI-H1793; first compound 1 µM
  relative viability: 0.656
NCI-H1944; first compound 0.01 µM
  relative viability: 1.27
NCI-H1944; first compound 0.03162 µM
  relative viability: 1.08
NCI-H1944; first compound 0.1 µM
  relative viability: 1.2
NCI-H1944; first compound 0.3162 µM
  relative viability: 1.3
NCI-H1944; first compound 1 µM
  relative viability: 1.12
NCI-H2023; first compound 0.01 µM
  relative viability: 0.716
NCI-H2023; first compound 0.03162 µM
  relative viability: 0.691
NCI-H2023; first compound 0.1 µM
  relative viability: 0.636
NCI-H2023; first compound 0.3162 µM
  relative viability: 0.708
NCI-H2023; first compound 1 µM
  relative viability: 0.685
NCI-H2085; first compound 0.01 µM
  relative viability: 0.977
NCI-H2085; first compound 0.03162 µM
  relative viability: 0.949
NCI-H2085; first compound 0.1 µM
  relative viability: 1.07
NCI-H2085; first compound 0.3162 µM
  relative viability: 0.918
NCI-H2085; first compound 1 µM
  relative viability: 0.887
NCI-H2087; first compound 0.01 µM
  relative viability: 0.912
NCI-H2087; first compound 0.03162 µM
  relative viability: 0.979
NCI-H2087; first compound 0.1 µM
  relative viability: 1.21
NCI-H2087; first compound 0.3162 µM
  relative viability: 1.02
NCI-H2087; first compound 1 µM
  relative viability: 0.883
NCI-H2405; first compound 0.01 µM
  relative viability: 0.76
NCI-H2405; first compound 0.03162 µM
  relative viability: 0.862
NCI-H2405; first compound 0.1 µM
  relative viability: 0.863
NCI-H2405; first compound 0.3162 µM
  relative viability: 1.03
NCI-H2405; first compound 1 µM
  relative viability: 0.817
NCI-H520; first compound 0.01 µM
  relative viability: 0.998
NCI-H520; first compound 0.03162 µM
  relative viability: 1.02
NCI-H520; first compound 0.1 µM
  relative viability: 0.948
NCI-H520; first compound 0.3162 µM
  relative viability: 0.912
NCI-H520; first compound 1 µM
  relative viability: 0.332
NCI-H650; first compound 0.01 µM
  relative viability: 0.792
NCI-H650; first compound 0.03162 µM
  relative viability: 0.929
NCI-H650; first compound 0.1 µM
  relative viability: 0.97
NCI-H650; first compound 0.3162 µM
  relative viability: 1.1
NCI-H650; first compound 1 µM
  relative viability: 0.789
NCI-H838; first compound 0.01 µM
  relative viability: 1.13
NCI-H838; first compound 0.03162 µM
  relative viability: 1
NCI-H838; first compound 0.1 µM
  relative viability: 1.05
NCI-H838; first compound 0.3162 µM
  relative viability: 1.01
NCI-H838; first compound 1 µM
  relative viability: 0.603
SK-MES-1; first compound 0.01 µM
  relative viability: 1.04
SK-MES-1; first compound 0.03162 µM
  relative viability: 1.26
SK-MES-1; first compound 0.1 µM
  relative viability: 1.16
SK-MES-1; first compound 0.3162 µM
  relative viability: 1.16
SK-MES-1; first compound 1 µM
  relative viability: 1.09
